In patent publication US9708628B2, “Cationic lipid having improved intracellular kinetics” (NOF CORPORATION, priority 2011, dated 2017):
Entries after “also recorded” stand apart in the source; their conditions may differ.

Experiments:
[1] = system: Rabbit Reticulocyte Lysate Systems; assay: Influence on in vitro translation reaction (luciferase mRNA); format: biochemical; conditions: MEND 0.0625-0.25 μg per 1 μL mRNA solution, 30° C., 90 min
Experimental: MENDs having a composition of B-2:SOPE:Chol=5:3:2 were prepared by the method described in [Experimental Example 1] (2). For the preparation, PEG2000-DMG was used as PEG lipid, and MEND solutions corresponding to 0.55 mM of the lipid concentration were prepared. For cationic MEND, lipids having a composition of DOTAP:DOPE:Chol:=3:4:3 were used, and the cationic MEND was prepared according to the method described in [Experimental Example 1] (3).
Luciferase-mRNA solution was diluted to 0.005 μg/μL. Various MEND solutions were added in 0.0625, 0.125, 0.25 μg relative to 1 μL of mRNA solution to adjust the total amount to 6.5 μL. A mixture of RRL (Rabbit Reticulocyte Lysate, 17.5 μL), AAM (Amino Acid Mixture)-Met (0.25 μL), AAM-Leu (0.25 μL), and RRI (Recombinant RNase Inhibitor, 0.5 μL) was added, and the mixture was stood at 30° C. for 90 min.
10 μL thereof was mixed with a Luciferase assay substrate (50 μL), and the luciferase activity in a given time was measured by a luminometer. […] Thereafter, the absorbance at 562 nm was measured, and the protein amount of the sample was calculated from the absorbance of a BSA solution having a known concentration. The luciferase activity (RLU) was adjusted by dividing with protein amount (mg), and the luciferase activity per cellular protein amount (RLU/mg protein) was calculated.

[2] = system: HT1080 cells; assay: Time-course of intracellular uptake amount of MEND (Cy5-labeled pDNA, FACS); format: cell-based; conditions: pDNA 1.6 μg/2 mL/well; 1, 3, 6 hr
Experimental: MENDs of B-2-4 (Example 4), B-2 (Example 1) were prepared according to [Experimental Example 1] (1), (2), [Experimental Example 15]. For the preparation, PEG2000-DMG was used as PEG lipid, and MEND solutions corresponding to 0.55 mM of the lipid concentration were prepared. For cationic MEND, lipids having a composition of DOTAP (Comparative Example 3):DOPE:Chol:=3:4:3 were used, and the cationic MEND was prepared according to the method described in [Experimental Example 1] (3). pDNA was labeled with fluorescence according to the method described in [Experimental Example 15] (2).
HT1080 cells were plated on a 6-well plate at 2×10^5 cells/2 mL/well 24 hr before, various sample MENDs were diluted with DMEM (FBS+) to a pDNA concentration of 1.6 μg/2 mL/well and transfected into the well. After 1, 3, 6 hr, MEND-containing DMEM was removed, and the cells were washed twice with heparin (20 units/mL, 1 mL), and further once with PBS(−) (1 mL). 0.05% Trypsin solution (500 μL) was added, and the cells were stood in an incubator at 37° C. for 3 min. DMEM (FBS+) (1 mL) was added and the mixture was centrifuged (700 g, 4° C., 5 min). The supernatant was removed and the cells were suspended in FACS buffer (1 mL). […] The suspension was passed through a 44 μm nylon mesh immediately before the measurement, and the fluorescence intensity of intracellular Cy5 was measured.

[3] = system: HT1080 cells; assay: Decapsulation efficiency over time (3, 6, 9, 12 hr); format: cell-based; conditions: 3, 6, 9, 12 hr after transfection
Text: For MEND preparation, Rhodamine-labeled pDNA prepared by the method of [Experimental Example 1] (4) was used. For preparation of MEND encapsulating the rhodamine-labeled pDNA, 50% of the pDNA solution described in [Experimental Example 1] (1) was replaced by the rhodamine-labeled pDNA. In addition, the lipid constituting the MEND was labeled with fluorescence by the method described in [Experimental Example 1] (3). MENDs having a composition of B-2-4 […]:DOPE:Chol=3:3:4, B-2 […]:SOPE:Chol=5:3:2 were prepared by the method described in [Experimental Example 1] (2). For the preparation, PEG2000-DMG was used as PEG lipid, and MEND solutions corresponding to 0.55 mM of the lipid concentration were prepared.
HT1080 cells were plated on a glass bottom dish at 5×10^4 cells/2 mL/dish 24 hr before. MEND was diluted with DMEM (FBS 10%+) to achieve pDNA 1.6 μg/2 mL and transfected into cells. 3, 6, 9, 12 hr later, the cells were washed twice with heparin solution (20 units/mL, 2 mL), Krebs buffer (1 mL) was added, and the images at 3, 6, 9, 12 hr after the transfection were obtained by a confocal laser scan microscope.
Rhodamine-labeled pDNA and lipid membrane of MEND were shown in pseudo colors of red and green, respectively. The decapsulation efficiency was calculated according to the following formula.

[4] = system: HT1080 cells; assay: Intracellular uptake pathway: influence of sucrose, amiloride, filipin on gene expression activity; format: cell-based; conditions: 0.3M sucrose, 1.5 mM amiloride
Experimental: Using compositions of B-2-4 (Example 4):DOPE:Chol=3:3:4, B-2 (Example 1):SOPE:Chol=5:3:2 as lipid, MENDs were prepared according to [Experimental Example 1] (1), (2). For the preparation, PEG2000-DMG was used as PEG lipid, and MEND solutions corresponding to 0.55 mM of the lipid concentration were prepared.
HT1080 cells were plated on a 24-well plate at 4×10^4 cells/500 μL/well 24 hr before. The medium was changed to DMEM (FBS+) containing filipin at a final concentration of […] 30 min before transfection. The medium was changed to DMEM (FBS+) containing a final concentration of 0.3M sucrose, and 1.5 mM amiloride 15 min before transfection. For transfection, various MENDs were added to the well at 0.8 μg/500 μL/well based on the pDNA amount. Thereafter, the gene expression activity was evaluated by the method described in [Experimental Example 4] (2).

[5] = system: HT1080 cells; assay: Inhibitory effect of retinoic acid (RA) on gene expression; format: cell-based; conditions: 0, 5, 7.5, 10 μM RA
Experimental: MENDs of B-2-4 (Example 4), B-2 (Example 1) were prepared according to [Experimental Example 1] (1), (2), [Experimental Example 18]. For the preparation, PEG2000-DMG was used as PEG lipid, and MEND solutions corresponding to 0.55 mM of the lipid concentration were prepared.
HT1080 cells were plated on a 3.5 cm cell culture dish at 4×10^4 cells/2 mL/dish 24 hr before, various MENDs were diluted with DMEM (FBS 10%+, Phenol red free) containing a final concentration 200 μM of D-luciferin potassium and 0, 5, 7.5, 10 μM RA (sigma) to achieve 1.6 μg/2 mL/dish based on the pDNA amount and transfection was performed. According to the Kronos Dio package insert, the luminescence amount was measured for 2 min every 20 min and taken as the luciferase activity (RLU/2 min).

Row | Structure (SMILES) | inhibitory effect on in vitro translation reaction [1] | intracellular uptake amount (Cy5-labeled pDNA) [2] | decapsulation efficiency [3] | gene expression with sucrose, amiloride, filipin [4] | gene expression activity in presence of RA [5]
1 | CCCCCCCC/C=C\CCCCCCCC(=O)OCC(C[N+](C)(C)C)OC(=O)CCCCCCC/C=C\CCCCCCCC (stereo not shown) [DOTAP, reference compound] | significant inhibitory effect |  |  |  | 
2 | CCCCCCCCCCCCCC(=O)OCCCN(C)CCSSCCN(C)CCCOC(=O)CCCCCCCCCCCCC [Example B-2] | not observed | low as compared to the MENDs using DOTAP | good decapsulation from early stages | inhibited by sucrose and amiloride | not decreased
3 | CC1=C(/C=C/C(C)=C/C=C/C(C)=C/C(=O)OCCCN(C)CCSSCCN(C)CCCOC(=O)/C=C(C)/C=C/C=C(C)/C=C/C2=C(C)CCCC2(C)C)C(C)(C)CCC1 [Example B-2-4] |  | low as compared to the MENDs using DOTAP; also recorded: more highly uptaken than B-2 | gradual decapsulation with the passage of time | inhibited by amiloride | decreased by RA in a concentration dependent manner
